{"source": "patent US20210017231A1", "about": "“ATP1A1-TARGETING POLYPEPTIDE AND USE THEREOF” (SUN YAT-SEN UNVIERSITY CANCER CENTER (SYSUCC), priority 2017, published 2021)", "key": {"[1]": {"system": "breast cancer MDA-MB-231 cells", "test": "Polypeptide blocking experiment (ELISA on cells)", "format": "cell-based, human", "details": "5, 10, 20 μg/μl S3 polypeptide", "experimental": "An enzyme-linked immunosorbent assay was used to detect the binding of S3 phage to breast cancer MDA-MB-231 cells, and then to detect whether […] could block the binding of […] to breast cancer MDA-MB-231 cells. The specific procedure was as follows:\n2) digesting cells with trypsin, counting, and uniformly plating the cells in a 96-well plate, 1×10^4/well;\n3) in the blocking experiment, adding 5, 10, 20 μg/μl S3 polypeptide and incubating at 37° C. for 1 h;\n4) in the targeting experiment, adding phages in a concentration gradient of 1.0×10^9, 2.0×10^9, 4.0×10^9, 8.0×10^9, […] pfu/well, incubating at 37° C. for 2 h for binding; in the blocking experiment, adding 20 μg/μl of Biotin-S3 polypeptide;\n5) discarding the cell incubation solution;\n6) fixing the cells with 4% paraformaldehyde for 10 min;\n7) washing five times with 0.1% PBST, 270 μl/well;\n8) destroying the membranes with 0.1% Triton, and washing once with PBST, 270 μl/well;\n9) blocking with 5% BSA for 30 min;\n10) adding 1:1000 diluted anti-M13 conjucted HRP by 50 μl/well, and incubating at room temperature for 1 h;\n11) washing five times with 0.1% PBST;\n12) developing color with a TMB kit; and 13) reading at OD 450 nm by a microplate reader."}, "[2]": {"system": "human breast cancer MDA-MB-231 cells", "test": "Confocal laser scanning microscopy (immunofluorescence) of biotin peptide binding to cells", "format": "cell-based", "details": "MDA-MB-231 versus human normal breast MCF-10A cells", "source_text": "The binding of Biotin-C (Biotin-SEQ ID NO:2) and Biotin-S3 (Biotin-SEQ ID NO:1) polypeptide to human breast cancer MDA-MB-231 cells was detected by confocal laser scanning microscopy. Meanwhile, the inventors compared it with the binding of the above polypeptides to human normal breast MCF-10A cells. The particular experimental procedure was as follows:\n1) digesting cells with trypsin and plating the cells in a 24-well plate provided with a slide, 1×10^5/well;\n2) adding Biotin-C (Biotin-SEQ ID NO:2), Biotin-S3 (Biotin-SEQ ID NO:1) polypeptide to the cells, 200 μg/well, and incubating at 37° C. for 2 h;\n3) discarding the cell incubation solution;\n4) fixing the cells with 4% paraformaldehyde for 10 min;\n5) washing five times with 0.1% PBST, 500 μl/well, and washing off unbound polypeptides;\n6) destroying the membranes with 0.1% Triton, and washing once with PBST, 500 μl/well;\n7) blocking with 5% BSA, 30 min;\n8) adding anti-Biotin Streptavidin (1:1000) into the wells, and incubating at 4° C. for 12 h;\n9) washing three times with 0.1% PBST, 5 min/time;\n10) adding anti-Streptavidin conjugated FITC (1:1000) into the wells, and incubating at room temperature for 45 min;\n11) washing three times with 0.1% PBST, 5 min/time;\n12) staining cell membranes with WGA (1:1000), and incubating at room temperature for 10 min;\n13) washing three times with 0.1% PBST, 5 min/time; […]"}, "[3]": {"system": "breast cancer MDA-MB-231 tumors", "test": "Infrared fluorescent molecular imaging of breast cancer tumor-bearing mice", "format": "in vivo", "source_text": "Tumor-bearing mice were used for the infrared fluorescence molecular imaging experiment to detect the distribution of Cy5-S3 (Cy5-SEQ ID NO:1) fluorescent peptide in various organs and tumors of the tumor-bearing mice. The experimental procedure of the imaging experiment of small living animals was as follows: 1) taking out nine male NOD SCID mice of 4-week old; 2) digesting breast cancer MDA-MB-231 cells with trypsin, counting, and adjusting the concentration to be 5.0×10^7 cells/ml, resuspending the cells with 20% Matrigel DMEM, and injecting with 200 μl/mouse; 3) observing tumor formation for 1-2 weeks, measuring the sizes of the tumors, and randomizing the mice into three groups according to the sizes of the tumors, i.e. […] 4) dissolving 300 μg fluorescent peptides in 200 μl PBS, injecting the fluorescent peptides into the tail veins of the mice, and dynamically detecting the distribution of the fluorescent peptides in various organs and tumors of the nude mice by using a small living animal imaging instrument. 5) taking out every organ and tumor, homogenizing, measuring the fluorescence intensity of each organ and tumor, and making statistical analysis."}, "[4]": {"system": "esophageal cancer KYSE30 tumor", "test": "Infrared fluorescent molecular imaging of esophageal cancer tumor-bearing mice", "format": "in vivo", "details": "48 hours after tail vein injection, FIGS. 2D, 2E", "source_text": "(§1) According to the above procedure, the Cy5-S3 (Cy5-SEQ ID NO:1) fluorescent peptides were applied in esophageal cancer KYSE30 tumor-bearing and nasopharyngeal carcinoma CNE2 mouse models, in order to detect whether Cy5-S3 (Cy5-SEQ ID NO:1) fluorescent peptide can be imaged with infrared fluorescent molecular imaging in other tumors."}, "[5]": {"system": "nasopharyngeal carcinoma CNE2 tumor", "test": "Infrared fluorescent molecular imaging of nasopharyngeal carcinoma mouse model", "format": "in vivo, mice", "details": "48 hours after tail vein injection, FIG. 2F", "source_text": "as §1"}, "[6]": {"system": "breast cancer MDA-MB-231 cells", "test": "Flow cytometry binding of fluorescent peptide to cells", "format": "cell-based, human", "details": "10 μM, on ice 20 min, FIG. 1C", "experimental": "The binding of FITC-S3 (SEQ ID NO:3) fluorescent peptide to breast cancer MDA-MB-231 cells was detected by flow cytometry. The inventors first synthesized a fluorescent peptide in which the […] and Con peptide were conjugated to a fluorescent dye FITC, and then incubated FITC-S3 (SEQ ID NO:3) fluorescent peptide with the cells, and finally detected the binding thereof by flow cytometry. The particular experimental procedure was as follows:\n1) digesting cells with trypsin, counting, and adjusting the concentration thereof to be 1.0×10^6 cells/tube, resuspending the cells with 100 μl serum-free 1640 medium;\n2) adding FITC-C or […] in PBS (10 μM), and incubating the cells on ice for binding for 20 min;\n3) washing three times with 0.1% PBST, 1 ml/time, and centrifuging at 400 g for 5 min;\n4) resuspending the cells with 500 μl PBS; and\n5) detecting by flow cytometry."}}, "note": "Bridge positions count the residues as written; N and C are the ends. Primed or numbered codes have the meaning given here. Ends that are not written are not given here. FITC′ = fluorescein isothiocyanate label; Cy5 = Cy5 dye label", "data": [{"substance": "CSISSLTHC [Peptide S3, ATP1A1-targeting polypeptide, SISSLTH motif with Cys at both terminals]", "values": [{"measurement": "blocking of the binding of Biotin-S3 polypeptide to breast cancer cells", "setting": "[1]; 20 μg/μl Biotin-S3, FIG. 1B", "value": "can block the binding"}, {"measurement": "concentration dependence of the blocking effect", "setting": "[1]; FIG. 1B", "value": "concentration-dependent"}, {"measurement": "targeting of breast cancer cells compared to normal breast MCF-10A cells", "setting": "[2]", "value": "obvious property of targeting breast cancer cells"}]}, {"substance": "Cy5-CSISSLTHC (disulfide 1-9 (inferred)) [Cy5-S3, Cy5 fluorescent S3 peptide]", "values": [{"measurement": "content of fluorescent peptide in unit weight of the tumor versus other organs", "setting": "[3]; 48 hours after tail vein injection, FIG. 2C", "value": "significantly higher than that in other organs"}, {"measurement": "enrichment in tumor by tissue analysis of dissected mice", "setting": "[3]; mouse, in vivo", "value": "significantly enriched in the tumor"}, {"measurement": "enrichment in tumors by infrared imaging of the living mice", "setting": "[3]; mouse, in vivo", "value": "obviously enriched in the tumors"}, {"measurement": "infrared fluorescent molecular imaging of esophageal cancer", "setting": "[4]", "value": "can also be used for the infrared fluorescent molecular imaging"}, {"measurement": "infrared fluorescent molecular imaging of nasopharyngeal carcinoma", "setting": "[5]", "value": "can also be used for the infrared fluorescent molecular imaging"}]}, {"substance": "CSISSLTHC-GGGS-FITC (CSISSLTHCGGGS-{FITC′}; disulfide 1-9 (inferred)) [FITC-S3, S3 peptide conjugated to fluorescent dye FITC]", "values": [{"measurement": "binding ability to breast cancer MDA-MB-231 cells versus FITC-control fluorescent peptide", "setting": "[6]", "value": "stronger than that of FITC-control fluorescent peptide"}]}]}
